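1) Cells in 96-well plates. 2) Compound, 48 h, 5 concentrations. 3) Linear interpolation between surrounding doses. 4) Unreached endpoint = highest concentration. TGI denotes the concentration required for complete inhibition of growth.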
What was measured:
Assay in all cases: NCI anticancer screen, dose series, 48 h
SK-OV-3 ovarian = test system: SK-OV-3 ovarian
SF-539 CNS = test system: SF-539 CNS
SN12C renal = test system: SN12C renal
SK-MEL-28 melanoma = test system: SK-MEL-28 melanoma
RXF 393 renal = test system: RXF 393 renal
SF-268 CNS = test system: SF-268 CNS
OVCAR-8 ovarian = test system: OVCAR-8 ovarian
NCI-H460 lung = test system: NCI-H460 lung
T-47D breast = test system: T-47D breast
BT-549 breast = test system: BT-549 breast
SNB-75 CNS = test system: SNB-75 CNS
U251 CNS = test system: U251 CNS
MDA-MB-231 breast = test system: MDA-MB-231 breast
DU-145 prostate = test system: DU-145 prostate
SR leukemia = test system: SR leukemia
EKVX NSCLC = test system: EKVX NSCLC
786-0 renal = test system: 786-0 renal
OVCAR-5 ovarian = test system: OVCAR-5 ovarian
HT29 colon = test system: HT29 colon
SK-MEL-2 melanoma = test system: SK-MEL-2 melanoma
HCC-2998 colon = test system: HCC-2998 colon
MDA-MB-435 = test system: MDA-MB-435
K-562 leukemia = test system: K-562 leukemia
HS 578T breast = test system: HS 578T breast
HOP-92 NSCLC = test system: HOP-92 NSCLC
ACHN renal = test system: ACHN renal
NCI-H226 lung = test system: NCI-H226 lung
MOLT-4 leukemia = test system: MOLT-4 leukemia
PC-3 prostate = test system: PC-3 prostate
HCT-116 colon = test system: HCT-116 colon
OVCAR-4 ovarian = test system: OVCAR-4 ovarian
A498 renal = test system: A498 renal
SK-MEL-5 melanoma = test system: SK-MEL-5 melanoma
LOX IMVI melanoma = test system: LOX IMVI melanoma
CAKI-1 renal = test system: CAKI-1 renal
MDA-N = test system: MDA-N
RPMI-8226 leukemia = test system: RPMI-8226 leukemia
SW-620 colon = test system: SW-620 colon
HCT-15 colon = test system: HCT-15 colon
COLO 205 colon = test system: COLO 205 colon
UO-31 renal = test system: UO-31 renal
OVCAR-3 ovarian = test system: OVCAR-3 ovarian
M14 melanoma = test system: M14 melanoma
KM12 colon = test system: KM12 colon
HOP-62 NSCLC = test system: HOP-62 NSCLC
IGROV1 ovarian = test system: IGROV1 ovarian
MCF7 breast = test system: MCF7 breast
A549 NSCLC = test system: A549 NSCLC
SF-295 CNS = test system: SF-295 CNS
NCI-H23 lung = test system: NCI-H23 lung
NCI-H522 lung = test system: NCI-H522 lung
CCRF-CEM leukemia = test system: CCRF-CEM leukemia
HL-60(TB) leukemia = test system: HL-60(TB) leukemia
SNB-19 CNS = test system: SNB-19 CNS
UACC-257 melanoma = test system: UACC-257 melanoma
MALME-3M melanoma = test system: MALME-3M melanoma
UACC-62 melanoma = test system: UACC-62 melanoma
TK-10 renal = test system: TK-10 renal
NCI/ADR-RES ovarian = test system: NCI/ADR-RES ovarian

Compound: Cc1noc(NS(=O)(=O)c2ccc(NC(=O)c3ccc4nc5ccccc5c(Nc5ccc(S(=O)(=O)Nc6onc(C)c6C)cc5)c4c3)cc2)c1C
- TGI (SK-OV-3 ovarian): > 100 µM
- TGI (SF-539 CNS): > 100 µM
- TGI (SN12C renal): > 100 µM
- TGI (SK-MEL-28 melanoma): > 100 µM
- TGI (RXF 393 renal): > 100 µM
- TGI (SF-268 CNS): > 100 µM
- TGI (OVCAR-8 ovarian): > 100 µM
- TGI (NCI-H460 lung): > 100 µM
- TGI (T-47D breast): > 100 µM
- TGI (BT-549 breast): 88.8 µM
- TGI (SNB-75 CNS): > 100 µM
- TGI (U251 CNS): > 100 µM
- TGI (MDA-MB-231 breast): 80.8 µM
- TGI (DU-145 prostate): > 100 µM
- TGI (SR leukemia): > 100 µM
- TGI (EKVX NSCLC): > 100 µM
- TGI (786-0 renal): > 100 µM
- TGI (OVCAR-5 ovarian): > 100 µM
- TGI (HT29 colon): > 100 µM
- TGI (SK-MEL-2 melanoma): > 100 µM
- TGI (HCC-2998 colon): > 100 µM
- TGI (MDA-MB-435): > 100 µM
- TGI (K-562 leukemia): 60.7 µM
- TGI (HS 578T breast): > 100 µM
- TGI (HOP-92 NSCLC): > 100 µM
- TGI (ACHN renal): > 100 µM
- TGI (NCI-H226 lung): > 100 µM
- TGI (MOLT-4 leukemia): > 100 µM
- TGI (PC-3 prostate): > 100 µM
- TGI (HCT-116 colon): > 100 µM
- TGI (OVCAR-4 ovarian): > 100 µM
- TGI (A498 renal): > 100 µM
- TGI (SK-MEL-5 melanoma): > 100 µM
- TGI (LOX IMVI melanoma): 61.3 µM
- TGI (CAKI-1 renal): > 100 µM
- TGI (MDA-N): > 100 µM
- TGI (RPMI-8226 leukemia): > 100 µM
- TGI (SW-620 colon): > 100 µM
- TGI (HCT-15 colon): > 100 µM
- TGI (COLO 205 colon): > 100 µM
- TGI (UO-31 renal): > 100 µM
- TGI (OVCAR-3 ovarian): > 100 µM
- TGI (M14 melanoma): > 100 µM
- TGI (KM12 colon): > 100 µM
- TGI (HOP-62 NSCLC): > 100 µM
- TGI (IGROV1 ovarian): > 100 µM
- TGI (MCF7 breast): > 100 µM
- TGI (A549 NSCLC): > 100 µM
- TGI (SF-295 CNS): > 100 µM
- TGI (NCI-H23 lung): > 100 µM
- TGI (NCI-H522 lung): > 100 µM
- TGI (CCRF-CEM leukemia): > 100 µM
- TGI (HL-60(TB) leukemia): > 100 µM
- TGI (SNB-19 CNS): > 100 µM
- TGI (UACC-257 melanoma): > 100 µM
- TGI (MALME-3M melanoma): > 100 µM
- TGI (UACC-62 melanoma): > 100 µM
- TGI (TK-10 renal): > 100 µM
- TGI (NCI/ADR-RES ovarian): > 100 µM

Compound: O=C(O)CCC(=O)C(=O)O
- TGI (SK-OV-3 ovarian): > 100 µM
- TGI (SF-539 CNS): > 100 µM
- TGI (SN12C renal): > 100 µM
- TGI (SK-MEL-28 melanoma): > 100 µM
- TGI (RXF 393 renal): > 100 µM
- TGI (SF-268 CNS): > 100 µM
- TGI (OVCAR-8 ovarian): > 100 µM
- TGI (NCI-H460 lung): > 100 µM
- TGI (T-47D breast): > 100 µM
- TGI (BT-549 breast): > 100 µM
- TGI (SNB-75 CNS): > 100 µM
- TGI (U251 CNS): > 100 µM
- TGI (MDA-MB-231 breast): > 100 µM
- TGI (DU-145 prostate): > 100 µM
- TGI (SR leukemia): > 100 µM
- TGI (EKVX NSCLC): > 100 µM
- TGI (786-0 renal): > 100 µM
- TGI (OVCAR-5 ovarian): > 100 µM
- TGI (HT29 colon): > 100 µM
- TGI (SK-MEL-2 melanoma): > 100 µM
- TGI (HCC-2998 colon): > 100 µM
- TGI (MDA-MB-435): > 100 µM
- TGI (K-562 leukemia): > 100 µM
- TGI (HS 578T breast): > 100 µM
- TGI (HOP-92 NSCLC): > 100 µM
- TGI (ACHN renal): > 100 µM
- TGI (NCI-H226 lung): > 100 µM
- TGI (MOLT-4 leukemia): > 100 µM
- TGI (PC-3 prostate): > 100 µM
- TGI (HCT-116 colon): > 100 µM
- TGI (OVCAR-4 ovarian): > 100 µM
- TGI (A498 renal): > 100 µM
- TGI (SK-MEL-5 melanoma): > 100 µM
- TGI (LOX IMVI melanoma): > 100 µM
- TGI (CAKI-1 renal): > 100 µM
- TGI (MDA-N): > 100 µM
- TGI (RPMI-8226 leukemia): > 100 µM
- TGI (SW-620 colon): > 100 µM
- TGI (HCT-15 colon): > 100 µM
- TGI (COLO 205 colon): > 100 µM
- TGI (UO-31 renal): > 100 µM
- TGI (OVCAR-3 ovarian): > 100 µM
- TGI (M14 melanoma): > 100 µM
- TGI (KM12 colon): > 100 µM
- TGI (HOP-62 NSCLC): > 100 µM
- TGI (IGROV1 ovarian): > 100 µM
- TGI (MCF7 breast): > 100 µM
- TGI (A549 NSCLC): > 100 µM
- TGI (SF-295 CNS): > 100 µM
- TGI (NCI-H23 lung): > 100 µM
- TGI (NCI-H522 lung): > 100 µM
- TGI (CCRF-CEM leukemia): > 100 µM
- TGI (HL-60(TB) leukemia): > 100 µM
- TGI (SNB-19 CNS): > 100 µM
- TGI (UACC-257 melanoma): > 100 µM
- TGI (MALME-3M melanoma): > 100 µM
- TGI (UACC-62 melanoma): > 100 µM
- TGI (TK-10 renal): > 100 µM
- TGI (NCI/ADR-RES ovarian): > 100 µM

From PubChem BioAssay (NCI)
